Measurements published in patent US11248234B2, “Herbicide-resistant hydroxyphenylpyruvate dioxygenases” (BASF SE, priority 2015, dated 2022).
“Also recorded” adds a separate entry of the source.

Columns and labels:
[1] = target: Scenedesmus HPPD (Seq ID: 2) (Tetradesmus obliquus, UniProt A0A383WMN4, N195D); test: In vitro HPPD activity assay; type: biochemical; conditions: for TI (normalized tolerance index): normalized on Arabidopsis wild-type HPPD (SEQ ID NO:42)
Description: (§1) HPPD produces homogentisic acid and CO2 from 4-hydroxyphenylpyruvate (4-HPP) and O2. The activity assay for HPPD is based on the analysis of homogentisic acid by reversed phase HPLC.
(§2) The assay mixture can contain 150 mM potassium phosphate buffer pH 7.0, 50 mM L-ascorbic acid, 100 μM Catalase (Sigma-Aldrich), 1 μM FeSO4 and 0.2 units of purified mutated HPPD enzyme in a total volume of 505 μl. 1 unit is defined as the amount of enzyme that is required to produce 1 nmol of HGA per minute at 20° C.
(§3) After a preincubation of 30 min the reaction is started by adding 4-HPP to a final concentration of 0.05 mM. The reaction is allowed to proceed for 45 min at room temperature. The reaction is stopped by the addition of 50 μl of 4.5 M phosphoric acid. The sample is filtered using a […] pore size PVDF filtration device.
(§4) 5 μl of the cleared sample is analyzed on an UPLC HSS T3 column (particle size 1.8 μm, dimensions 2.1×50 mm; Waters) by isocratic elution using 90% 20 mM NaH2PO4 pH 2.2, 10% methanol (v/v).
(§5) HGA is detected electrochemically at 750 mV (mode: DC; polarity: positive) and quantified by integrating peak areas (Empower software; Waters).
(§6) Inhibitors are dissolved in DMSO (dimethylsulfoxide) to a concentration of 0.5 mM. From this stock solution serial five-fold dilutions are prepared in DMSO, which are used in the assay. The respective inhibitor solution accounts for 1% of the assay volume. Thus, final inhibitor concentrations range from 5 μM to 320 pM, respectively. Activities are normalized by setting the uninhibited enzyme activity to 100%. IC50 values are calculated using non-linear regression.
(§7) Using methods which are described in the above examples or well known in the art, purified, recombinant mutated HPPD enzymes are characterized with respect to their kinetic properties and sensitivity towards HPPD inhibiting herbicides. Apparent michaelis constants (Km) and maximal reaction velocities (Vmax) are calculated by non-linear regression with the software GraphPad Prism 5 (GraphPad Software, La Jolla, USA) using a substrate inhibition model. Apparent kcat values are calculated from Vmax assuming 100% purity of the enzyme preparation. Weighted means (by standard error) of Km and IC50 values are calculated from at least three independent experiments. The Cheng-Prusoff equation for competitive inhibition (Cheng, Y. C.; Prusoff, W. H. Biochem Pharmacol 1973, 22, 3099-3108) is used to calculate dissociation constants (Ki).
(§8) Field performance of the HPPD enzyme, which is used as a herbicide tolerance trait may depend not only on its lack of sensitivity towards HPPD inhibiting herbicides but also on its activity. To assess the potential performance of a herbicide tolerance trait a tolerance index (TI) is calculated using the following formula: […]
(§9) Easy comparison and ranking of each trait is enabled by normalizing tolerance indexes on Arabidopsis wild-type HPPD.

[2] = target: Scenedesmus Short HPPD (Seq ID: 4) (Tetradesmus obliquus, UniProt A0A383WMN4, DEL398-433/N195D); test: In vitro HPPD activity assay; type: biochemical; conditions: for TI (normalized tolerance index): normalized on Arabidopsis wild-type HPPD (SEQ ID NO:42)
Scenedesmus Short HPPD (Seq ID: 4), sequence (A0A383WMN4 entry or part of it N195D/DEL398-433): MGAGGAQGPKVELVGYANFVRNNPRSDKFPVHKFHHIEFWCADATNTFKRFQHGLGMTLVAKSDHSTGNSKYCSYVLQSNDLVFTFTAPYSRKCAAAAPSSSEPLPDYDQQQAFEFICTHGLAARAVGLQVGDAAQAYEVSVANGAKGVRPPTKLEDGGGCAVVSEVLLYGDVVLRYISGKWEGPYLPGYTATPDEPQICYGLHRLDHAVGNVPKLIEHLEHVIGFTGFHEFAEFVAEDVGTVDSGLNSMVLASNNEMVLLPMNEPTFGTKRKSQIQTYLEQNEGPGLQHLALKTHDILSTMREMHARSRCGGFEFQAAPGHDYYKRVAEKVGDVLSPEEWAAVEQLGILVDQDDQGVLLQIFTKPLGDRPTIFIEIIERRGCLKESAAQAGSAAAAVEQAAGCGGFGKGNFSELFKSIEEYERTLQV
Description: as §1, §2, §3, §4, §5, §6, §7, §8, §9

[3] = target: T1, Arabidopsis HPPD (Seq ID: 42) (Arabidopsis thaliana, UniProt P93836); test: In vitro HPPD activity assay (homogentisic acid by HPLC); type: biochemical; conditions: benchmark enzyme; normalized on Arabidopsis wild-type HPPD
T1 construct: His6; made in house; host or cells: E. coli BL21 (DE3)
T1 sequence (P93836 1-445): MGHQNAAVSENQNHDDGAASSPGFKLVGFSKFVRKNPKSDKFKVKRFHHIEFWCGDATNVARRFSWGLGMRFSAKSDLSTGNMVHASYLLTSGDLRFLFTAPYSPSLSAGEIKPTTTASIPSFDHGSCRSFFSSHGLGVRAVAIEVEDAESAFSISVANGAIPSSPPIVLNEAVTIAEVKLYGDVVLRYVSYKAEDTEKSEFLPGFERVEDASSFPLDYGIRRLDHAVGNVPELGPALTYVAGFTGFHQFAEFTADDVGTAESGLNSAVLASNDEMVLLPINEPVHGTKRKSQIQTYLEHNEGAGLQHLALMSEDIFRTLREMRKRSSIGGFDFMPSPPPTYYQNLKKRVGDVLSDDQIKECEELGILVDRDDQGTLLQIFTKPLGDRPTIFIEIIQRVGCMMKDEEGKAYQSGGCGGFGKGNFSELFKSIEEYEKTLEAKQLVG
Description: as §1, §2, §3, §4, §5
as §6, with “Thus, final inhibitor concentrations range from 5 μM to 320 pM, respectively.” left out
as §7, with “Apparent kcat values are calculated from Vmax assuming 100% purity of the enzyme preparation.” left out, “experiments.” for “experiments. The Cheng-Prusoff equation for competitive inhibition (Cheng, Y. C.; Prusoff, W. H. Biochem Pharmacol 1973, 22, 3099-3108) is used to calculate dissociation constants (Ki).”
as §8, §9

[4] = test system: SoHPPD A318P, A319P (short); test: In vitro HPPD activity assay; type: biochemical, Scenedesmus obliquus; conditions: normalized on Arabidopsis wild-type HPPD (SEQ ID NO:42)
Description: as §1, §2, §3, §4, §5, §6, §7, §8, §9

[5] = test system: SoHPPD A318R, L350M (short); test: In vitro HPPD activity assay; type: biochemical, Scenedesmus obliquus; conditions: normalized on Arabidopsis wild-type HPPD (SEQ ID NO:42)
Description: as §1, §2, §3, §4, §5, §6, §7, §8, §9

SoHPPD A318R, L350M = test: In vitro HPPD activity assay; type: biochemical, Scenedesmus obliquus; conditions: normalized on Arabidopsis wild-type HPPD (SEQ ID NO:42)
Description: as §1, §2, §3, §4, §5, §6, §7, §8, §9

SoHPPD E379Q (short) = test: In vitro HPPD activity assay; type: biochemical, Scenedesmus obliquus; conditions: normalized on Arabidopsis wild-type HPPD (SEQ ID NO:42)
Description: as §1, §2, §3, §4, §5, §6, §7, §8, §9

SoHPPD F363I (short) = test: In vitro HPPD activity assay; type: biochemical, Scenedesmus obliquus; conditions: normalized on Arabidopsis wild-type HPPD (SEQ ID NO:42)
Description: as §1, §2, §3, §4, §5, §6, §7, §8, §9

SoHPPD I455V = test: In vitro HPPD activity assay; type: biochemical, Scenedesmus obliquus; conditions: normalized on Arabidopsis wild-type HPPD (SEQ ID NO:42)
Description: as §1, §2, §3, §4, §5, §6, §7, §8, §9

SoHPPD L367V, I375L = test: In vitro HPPD activity assay; type: biochemical, Scenedesmus obliquus; conditions: normalized on Arabidopsis wild-type HPPD (SEQ ID NO:42)
Description: as §1, §2, §3, §4, §5, §6, §7, §8, §9

SoHPPD Q317H (short) = test: In vitro HPPD activity assay; type: biochemical, Scenedesmus obliquus; conditions: normalized on Arabidopsis wild-type HPPD (SEQ ID NO:42)
Description: as §1, §2, §3, §4, §5, §6, §7, §8, §9

[6] = test system: SoHPPD Q317H, A318G, E345Q (short); test: In vitro HPPD activity assay; type: biochemical, Scenedesmus obliquus; conditions: normalized on Arabidopsis wild-type HPPD (SEQ ID NO:42)
Description: as §1, §2, §3, §4, §5, §6, §7, §8, §9

[7] = test system: SoHPPD R327G, E421D (short); test: In vitro HPPD activity assay; type: biochemical, Scenedesmus obliquus; conditions: normalized on Arabidopsis wild-type HPPD (SEQ ID NO:42)
Description: as §1, §2, §3, §4, §5, §6, §7, §8, §9

SoHPPD V251A (short) = test: In vitro HPPD activity assay; type: biochemical, Scenedesmus obliquus; conditions: normalized on Arabidopsis wild-type HPPD (SEQ ID NO:42)
Description: as §1, §2, §3, §4, §5, §6, §7, §8, §9

Scenedesmus HPPD (Seq ID: 2), sequence (A0A383WMN4 entry or part of it N195D): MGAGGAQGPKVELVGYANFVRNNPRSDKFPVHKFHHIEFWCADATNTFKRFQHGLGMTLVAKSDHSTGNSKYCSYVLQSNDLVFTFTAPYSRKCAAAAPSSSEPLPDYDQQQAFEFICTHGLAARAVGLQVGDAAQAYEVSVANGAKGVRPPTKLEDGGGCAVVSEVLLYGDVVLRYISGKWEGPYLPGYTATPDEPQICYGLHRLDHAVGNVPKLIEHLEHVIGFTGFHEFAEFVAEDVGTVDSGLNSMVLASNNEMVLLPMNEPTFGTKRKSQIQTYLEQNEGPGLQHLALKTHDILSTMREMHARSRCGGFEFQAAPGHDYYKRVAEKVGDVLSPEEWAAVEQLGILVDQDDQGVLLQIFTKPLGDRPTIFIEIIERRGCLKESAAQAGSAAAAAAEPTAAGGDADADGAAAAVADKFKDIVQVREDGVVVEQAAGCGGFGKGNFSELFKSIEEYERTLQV

Compound | Ki [1] | Ki [2] | TI (normalized tolerance index) [3] | TI (normalized tolerance index) [1] | TI (normalized tolerance index) [2] | TI (normalized tolerance index) [4] | TI (normalized tolerance index) [5] | TI (normalized tolerance index) (SoHPPD A318R, L350M) | TI (normalized tolerance index) (SoHPPD E379Q (short)) | TI (normalized tolerance index) (SoHPPD F363I (short)) | TI (normalized tolerance index) (SoHPPD I455V) | TI (normalized tolerance index) (SoHPPD L367V, I375L) | TI (normalized tolerance index) (SoHPPD Q317H (short)) | TI (normalized tolerance index) [6] | TI (normalized tolerance index) [7] | TI (normalized tolerance index) (SoHPPD V251A (short))
Cc1c(C(=O)c2cnn(C)c2O)ccc(S(C)(=O)=O)c1C1=NOCC1 [Inhibitor 1, [3-(4,5-dihydroisoxazol-3-yl)-2-methyl-4-methylsulfonyl-phenyl]-(5-hydroxy-1-methyl-pyrazol-4-yl)methanone] | 11 nM | 46 nM | – | – | – | – | – | – | – | – | – | – | – | – | – | –
CS(=O)(=O)c1ccc(C(=O)C2C(=O)CCCC2=O)c([N+](=O)[O-])c1 [Inhibitor 2, 2-(4-methylsulfonyl-2-nitro-benzoyl)cyclohexane-1,3-dione] | – | – | 1.0 | 0.5 | 0.0 | 0.2 | 0.8 | 0.1 | 0.0 | 0.8 | 0.1 | 0.0 | 0.2 | 0.4 | 0.2 | 0.0
CCS(=O)(=O)c1cc(C(F)(F)F)ccc1C1=C(O)c2ncccc2C(C)(C)S1(=O)=O [Inhibitor 4, 7-[2-ethylsulfonyl-4-(trifluoromethyl)phenyl]-5,5-dimethyl-6,6-dioxo-thiopyrano[4,3-b]pyridin-8-ol] | – | – | 1.0 | 0.1 | 1.4 | 0.6 | 1.0 | 0.3 | 0.1 | 0.3 | 0.5 | 0.2 | 0.6 | 1.4 | 0.0 | 0.0
CC(=O)N(C)c1c(Cl)ccc(C2=C(O)c3ncccc3C(C)(C)S2(=O)=O)c1Cl [Inhibitor 5, N-[2,6-dichloro-3-(8-hydroxy-5,5-dimethyl-6,6-dioxo-thiopyrano[4,3-b]pyridin-7-yl)phenyl]-N-methyl-acetamide] | – | – | 1.0 | 0.0 | 1.3 | 0.5 | 0.7 | 0.2 | 0.0 | 0.6 | 0.7 | 0.1 | 0.4 | 0.9 | 0.3 | 0.0
CCSc1ccc(Cl)c(C(=O)Nc2nnnn2C)c1Cl [Inhibitor 8, 2,6-dichloro-3-ethylsulfanyl-N-(1-methyltetrazol-5-yl)benzamide] | – | – | 1.0 | 0.1 | 0.9 | 0.8 | 1.2 | 0.2 | 0.4 | not inhibited; also recorded: no inhi- | 0.3 | 0.0 | 0.5 | 1.0 | 0.5 | 0.1
